# Tests used:
# [1] = biological target: Human immunodeficiency virus type 1 protease (Human immunodeficiency virus 1, UniProt Q72874); assay: Inhibition of RNA-dependent DNA polymerase activity against wild-type HIV-1 RT at a concentration of 100 uM; No inhibition
# [2] = biological target: T1, Human immunodeficiency virus type 1 reverse transcriptase (Human immunodeficiency virus 1, UniProt Q72547); assay: Inhibitory activity against reverse transcriptase of HIV-1
# [3] = biological target: T1, Human immunodeficiency virus type 1 reverse transcriptase; assay: Inhibitory activity against reverse transcriptase of HIV; Inactive
compound,measurement,setting,value
COc1ccc(OC)c2c(O)c(O)cnc12,Ki,[1],Not Active
Oc1cnc2c(O)ccc(O)c2c1O,Ki,[2],490 nM
COc1cnc2c(OC)ccc(OC)c2c1O,Ki,[3],Not Active

# — ChEMBL document CHEMBL1132397, “Synthesis of 5,8-dimethoxy-3-hydroxy-4-quinolone, a reported inhibitor of HIV RT, and evidence the original proposed structure was incorrect” (Bioorg Med Chem Lett, 1999)
